Where two headings read alike, the source gives them in different places.

Consider 19 substances from publication PMC12345137 (mBio, 2025).

One test has as its target S. lugdunensis agr-I (Staphylococcus lugdunensis, UniProt Q8VSW5). Put plainly: cell-based. The following applies: fluorescent reporter strain; peptides tested at 1000, 50, 2.5, 0.125 nM or in dose-response. As to the method:
(§1) Peptides were evaluated for the ability to interfere with agr-mediated quorum sensing in S. aureus (AH1677, AH430, AH1747, and AH1872 for agr-I–IV, respectively) ([40]) using reporter strains expressing yellow fluorescent protein (YFP) upon agr activation. Interference with agr-mediated quorum sensing in S. epidermidis (AH3408, AH3623, and AH3409 for agr-I–III, respectively) ([45]), and S. lugdunensis (AH4031 for agr-I) ([37]) was evaluated using reporter strains expressing superfolder green fluorescent protein (sGFP) upon agr activation. Overnight cultures of the reporter strains were grown in TSB medium containing chloramphenicol (CAM, 10 μg/mL for S. aureus) or erythromycin (ERM, 10 μg/mL of S. epidermidis and S. lugdunensis) and diluted 1:100 in fresh TSB medium containing the same antibiotic. Assays were performed in sterile black 96-well plates with a clear bottom. […] DMSO stock solutions of peptides (1 mM) were diluted in TSB media and added (15 μL) in technical triplicate to the 96-well plate, followed by diluted bacterial overnight cultures (135 μL). Control wells for 100% agr activity were wells replacing the peptide solution with TSB medium (15 μL). […] Wells containing 150 μL TSB medium were used to measure background fluorescence. The 96-well plates were incubated in a humidified incubator at 37°C shaking at 1,000 rpm for 22–24 h and fluorescence (for GFP: excitation 479 nm, emission 520 nm; for YFP: excitation 500 nm, emission 541 nm; automatic gain), and OD600 values were subsequently measured using a plate reader. Background fluorescence was subtracted from all wells and further normalized to the corresponding OD600 value of the respective wells. The average fluorescence of control wells was used as a relative measure for 100% activation of the agr-circuit, and bar graphs were generated using GraphPad Prism 10.4 software. All assays were performed in at least a biological duplicate.
(§2) Overnight cultures of the reporter strains were grown in TSB medium containing chloramphenicol (CAM, 10 μg/mL for S. aureus) or erythromycin (ERM, 10 μg/mL of S. epidermidis and S. lugdunensis) and diluted 1:100 in fresh TSB medium containing the same antibiotic. Assays were performed in sterile black 96-well plates with clear bottoms. Peptide solutions (15 μL) in 1:5 serial dilutions from DMSO stock solutions (1 mM) in TSB medium were added to the 96-well plate in technical duplicate followed by diluted bacterial overnight cultures (135 μL). Control wells for 100% agr activity were wells replacing the peptide solution with TSB medium (15 μL). Wells containing 150 μL TSB medium were used to measure background fluorescence. The 96-well plates were incubated in a humidified incubator at 37°C shaking at 1,000 rpm for 22–24 h and fluorescence (for GFP: excitation 479 nm, emission 520 nm; for YFP: excitation 500 nm, emission 541 nm; automatic gain), and OD600 values were subsequently measured using a plate reader. Background fluorescence was subtracted from all wells and further normalized to the corresponding OD600 value of the respective wells. The average fluorescence of control wells was used as a relative measure for 100% activation of the agr-circuit. Relative agr activity was plotted to obtain IC50 values by non-linear regression with variable slope using GraphPad Prism 10.4 software. All assays were performed in biological triplicate.

A further test concerns the target SA AgrC-III (Staphylococcus aureus, UniProt O33590). The note with it: 100 nM cognate AIP, ± SEM, determined previously, ref (1), cited from earlier work.
Another test deals with SA AgrC-II (Staphylococcus aureus, UniProt O33587). The note with it: 100 nM cognate AIP, ± SEM, -b = no inhibition recorded at the highest AIP concentration tested, determined previously, ref (1), cited from earlier work; for IC50: read-out: IC50, SA AgrC-II, b-lactamase assay.
A further test relates to S. aureus (SA) agr-III. The note with it: fluorescence, cited from earlier work.
The next test relates to S. aureus (SA) agr-II. The note with it: fluorescence, cited from earlier work.
In another test the test system is S. aureus (SA) agr-IV. The note with it: fluorescence, cited from earlier work.
The next test relates to S. aureus (SA) agr-I. The following applies: fluorescence, cited from earlier work.
In test [1] the test system is S. epidermidis (SE) agr-I. The note with it: fluorescence, cited from earlier work.
Test [2] deals with S. epidermidis (SE) agr-II. The note with it: fluorescence, cited from earlier work.
The test system of test [3] is S. epidermidis (SE) agr-III. The note with it: fluorescence; ref (13); cited from earlier work.
The target of a further test is SA AgrC-IV (Staphylococcus aureus, UniProt Q309Z2). The note with it: ± SEM, determined previously, ref (1), cited from earlier work; for EC50: read-out: EC50, SA AgrC-IV, b-lactamase assay.
The target in another test is S. aureus agr-IV (Staphylococcus aureus, UniProt Q309Z2). Put plainly: cell-based. Type of test: cell-based. The note with it: fluorescent reporter strain; peptides tested at 1000, 50, 2.5, 0.125 nM or in dose-response. How it is done:
as §1, §2

For a further test, the target named is S. epidermidis agr-III (Staphylococcus epidermidis, UniProt Q8VSX2). The test can be described thus: cell-based. The test is classed as cell-based. The note with it: fluorescent reporter strain; peptides tested at 1000, 50, 2.5, 0.125 nM or in dose-response. As to the method: as §1, §2
[4] abbreviates: -b = no inhibition recorded at the highest AIP concentration tested, read-out: IC50, SA AgrC-III, b-lactamase assay.
The mark [5] stands for this setting: only partial inhibition observed, read-out: IC50, SA AgrC-III, b-lactamase assay, only partial inhibition observed (footnote a).
The mark [6] stands for this setting: 100 nM cognate AIP, -b = no inhibition recorded at the highest AIP concentration tested.
The mark [7] stands for this setting: -b = no inhibition recorded at the highest AIP concentration tested.

“S. Simulans AIP-II/III N-Me2 [compound 56]”: the “QS interaction in words (inhibition / activation), S. lugdunensis agr-I” value on S. lugdunensis agr-I is given as “remained highly potent”.
One may read the IC50 as the concentration that inhibits the measured activity by half. Take S. haemolyticus AIP-I [compound 15]: the IC50 on SA AgrC-III (setting [4]) was 340 ± 91 nM. For the same substance, the “IC50, SA AgrC-II, b-lactamase assay” value at SA AgrC-II is “-b”.
Take S. hominis AIP-II [compound 11]: the IC50 was 3 nM in the test on S. aureus (SA) agr-III (ref (13)); 2110 nM in the test with S. aureus (SA) agr-II (ref (13)); 1130 nM in the test on S. aureus (SA) agr-IV (ref (13)); 15 nM with S. aureus (SA) agr-I (ref (13)); 20 nM in test [1] (ref (13)); 19 nM in [2] (ref (13)). In [3], the half-inhibitory concentration (IC50) was 62 nM.
What is called EC50 is the midpoint of the concentration-response curve. As to S. hominis AIP-III [compound 12], at SA AgrC-IV, the EC50 is 54 ± 5 nM. Moreover, on S. aureus agr-IV, the “QS interaction in words (inhibition / activation), S. aureus agr-IV” value was “activated”. Further, the IC50 in the test with S. aureus (SA) agr-III (ref (13)) is 6 nM; in the test with S. aureus (SA) agr-II (ref (13)), 4 nM; in the test with S. aureus (SA) agr-I (ref (13)), 11 nM; on SA AgrC-III (setting [5]) it was 220 ± 46 nM; on SA AgrC-II, 580 ± 61 nM; in test [1] (ref (13)), 4 nM. Besides, the IC50 in test [2] (ref (13)) and in test [3] was 3 nM in each case.
Take S. hominis AIP-IV [compound 13]: the IC50 in the test with S. aureus (SA) agr-III (ref (13)) was 37 nM; with S. aureus (SA) agr-II (ref (13)), 140 nM; in the test with S. aureus (SA) agr-I (ref (13)), 128 nM; in test [1] (ref (13)), 237 nM; in test [2] (ref (13)), 93 nM; in [3], 28 nM.
As for S. hominis AIP-V [compound 14], the IC50 in the test with S. aureus (SA) agr-III (ref (13)) was 4 nM; with S. aureus (SA) agr-II (ref (13)), 59 nM; in the test on S. aureus (SA) agr-IV (ref (13)) it was 3810 nM; in the test with S. aureus (SA) agr-I (ref (13)), 43 nM; in test [1] (ref (13)) it was 10 nM; in [2] (ref (13)) it was 22 nM. Further, the IC50 in [3] was 2 nM.
Consider S. lugdunensis AIP-II [compound 9], for which the “IC50, SA AgrC-IV, b-lactamase assay” value on SA AgrC-IV (setting [6]) is given as “-b”. Also, on SA AgrC-III (setting [7]), the “IC50, SA AgrC-III, b-lactamase assay” value is on record as “-b”. The “IC50, SA AgrC-II, b-lactamase assay” value on SA AgrC-II is reported as “-b”.
In the case of S. saprophyticus AIP-I [compound 19], the “IC50, SA AgrC-IV, b-lactamase assay” value on SA AgrC-IV (setting [6]) is “-b”. Besides, the “IC50, SA AgrC-III, b-lactamase assay” value on SA AgrC-III (setting [7]) is “-b”.
S. schleiferi AIP-I [compound 30]: the EC50 at SA AgrC-IV was 31 ± 6 nM. The half-inhibitory concentration (IC50) is 80 ± 16 nM at SA AgrC-III (setting [5]) and 86 ± 6 nM on SA AgrC-II.
For “S. simulans AIP-II/III Y3A/N3A [compound 38]”, the “QS interaction in words (inhibition / activation), S. epidermidis agr-III” value on S. epidermidis agr-III is recorded as “inhibitor”.
With S. simulans AIP-III 8-mer [compound 52], the “QS interaction in words (inhibition / activation), S. aureus agr-IV” value at S. aureus agr-IV is “increased inhibition”.
S. simulans AIP-III G7A [compound 49]: the “QS interaction in words (inhibition / activation), S. epidermidis agr-III” value on S. epidermidis agr-III is on record as “loss of activation”.
Take S. simulans AIP-III K1A [compound 45]: at S. epidermidis agr-III, the “QS interaction in words (inhibition / activation), S. epidermidis agr-III” value was “lost the ability to activate”.
S. simulans AIP-III P4A [compound 47]: at S. lugdunensis agr-I, the “QS interaction in words (inhibition / activation), S. lugdunensis agr-I” value was “increase in inhibition”.
Consider S. simulans AIP-III W6A [compound 48], for which the “QS interaction in words (inhibition / activation), S. epidermidis agr-III” value at S. epidermidis agr-III is “no effect on S. epidermidis agr-III activation”.
For the substance S. simulans AIP-III Y2A [compound 46], on S. epidermidis agr-III, the “QS interaction in words (inhibition / activation), S. epidermidis agr-III” value is listed as “lost the ability to activate”.
On to S. vitulinus AIP-I [compound 35], for which, at SA AgrC-IV (setting [6]), the “IC50, SA AgrC-IV, b-lactamase assay” value is given as “-b”. For the same substance, the IC50 is 690 ± 46 nM on SA AgrC-III (setting [4]) and 800 ± 116 nM at SA AgrC-II.
For S. warneri AIP-I [compound 16], the IC50 at SA AgrC-IV ([…] nM cognate AIP, -b = no inhibition recorded at the highest AIP concentration tested, read-out: IC50, SA AgrC-IV, b-lactamase assay) was more than 1000 nM; in the test with S. aureus (SA) agr-III (ref (14)) it was 13 nM; in the test on S. aureus (SA) agr-II (ref (14)), 4 nM; with S. aureus (SA) agr-IV (ref (14)) it was 146 nM; in the test with S. aureus (SA) agr-I (ref (14)), 10 nM; on SA AgrC-III (setting [4]), 460 ± 59 nM. Also, the IC50 at SA AgrC-II is 1000 ± 105 nM; in test [1] (ref (14)), 3 nM; in test [2] (ref (14)), 19 nM.
For the substance S. warneri AIP-II [compound 17], the IC50 in the test with S. aureus (SA) agr-III (ref (14)) was 2 nM; in the test with S. aureus (SA) agr-II (ref (14)), 30 nM; in the test on S. aureus (SA) agr-IV (ref (14)), 2 nM; with S. aureus (SA) agr-I (ref (14)) it was 2 nM; in test [1] (ref (14)), 12 nM; in test [2] (ref (14)), 4 nM.
